The values that follow come from patent US20230172897A1, “METHODS OF TREATING BREAST CANCERS WITH SELECTIVE ANDROGEN RECEPTOR MODULATORS AND ADDITIONAL THERAPEUTIC AGENTS” (VERU, INC., priority 2021, published 2023).

The subject of data set [1] is breast cancer specimens obtained from patients. Briefly: Ex vivo sponge culture of breast cancer patient specimens, real time PCR. Conditions: 3 days. (Quantitative PCR measures a nucleic acid by following its amplification.)
Data set [2] is described as follows: Completed and ongoing clinical studies (overall tolerability). The format is in vivo, human. The following applies: single doses up to 100 mg; multiple doses up to 30 mg once daily up to 14 days. An excerpt: These include: 1. Protocol G100401, a Phase 1 single ascending dose study in 96 healthy, young, male volunteers; 2. Protocol G100402, a Phase 1 multiple ascending dose study in 50 healthy, young, male volunteers, and 23 elderly male volunteers with truncal obesity; 3. Protocol G100503, a Phase 1 single dose pharmacokinetic study to assess the effect of a dosage regimen that simulates a sustained release formulation to an immediate release formulation in 18 healthy, young male volunteers and 18 postmenopausal women; 4. Protocol G100506, a Phase 1 single dose pharmacokinetic study to assess the relative bioavailability of a 3 mg […] formulation to be used during continued clinical development and to assess the effect of food on the pharmacokinetics of the 3 mg softgel formulation in 27 healthy, young, male volunteers; 5. Protocol 006, a Phase 1 single dose and multiple dose pharmacokinetic study in 24 postmenopausal, Japanese women; 6. Protocol G200501, a Phase 2 study in 60 postmenopausal women and 60 elderly men to assess lean body mass and physical function; 7. Protocol 003, a Phase 1b study in 44 postmenopausal women; 8. Protocol G200502, a Phase 2b study in 159 men and postmenopausal women with cancer to assess lean body mass and physical function; 9.

Data set [3] deals with HCI-9 PDX (AR-positive, ER-negative). Briefly: HCI-9 PDX in NSG mice. The format is in vivo. Conditions: Formula IX 10 mpk p.o.; enzalutamide 30 mpk p.o. How it is done: After 6 days of treatment, cells were harvested, and the number of cells was counted. […] Medium was changed after 3 days and re-treated. Cells were fixed after 6 days of treatment and the cell viability was measured by SRB assay. […] Medium was changed, and the cells were re-treated on days 4 and 7. Medium was collected, pooled from triplicates, and stored in −80° C. After 10 days of treatment, cells were fixed, and cell viability was measured using SRB. MCF-7 cells stably transfected with GFP (MCF-7-GFP) were plated in growth medium. Twenty-four hours after plating, cells were fed with the conditioned medium obtained from patient-derived fibroblasts as indicated above. Cells were fed for 10 days with conditioned medium, with medium changed on days 4 and 7. After 10 days of treatment, cells were fixed, and the viability was measured by SRB assay. […] AR-positive, but ER-negative HCI-9 PDX was surgically implanted as 1 mm^3 fragments under the mammary fat pad in NSG mice (n=8-10/group). […] Tumor volume was measured thrice weekly. […] ER-α from HCI-13 was cloned into pCR3.1 vector. […] Twenty four hours after treatment cells were harvested and luciferase assay was performed. […] Values are expressed as average ±S.E. from n=3-4/data point.

The subject of data set [4] is MCF-7-AR cells. Briefly: Growth assay (SRB), MCF-7 stably transfected with AR or GFP. The data set is classed as cell-based. Conditions: 6 days. The method, then: After 6 days of treatment, cells were harvested, and the number of cells was counted. […] Medium was changed after 3 days and re-treated. Cells were fixed after 6 days of treatment and the cell viability was measured by SRB assay. […] Medium was changed, and the cells were re-treated on days 4 and 7. Medium was collected, pooled from triplicates, and stored in −80° C. After 10 days of treatment, cells were fixed, and cell viability was measured using SRB. MCF-7 cells stably transfected with GFP (MCF-7-GFP) were plated in growth medium. Twenty-four hours after plating, cells were fed with the conditioned medium obtained from patient-derived fibroblasts as indicated above. Cells were fed for 10 days with conditioned medium, with medium changed on days 4 and 7. After 10 days of treatment, cells were fixed, and the viability was measured by SRB assay. […] AR-positive, but ER-negative HCI-9 PDX was surgically implanted as 1 mm^3 fragments under the mammary fat pad in NSG mice (n=8-10/group). […] Tumor volume was measured thrice weekly. […] ER-α from HCI-13 was cloned into pCR3.1 vector. […] Values are expressed as average ±S.E. from n=3-4/data point.
Cells were plated at varying densities in growth medium in 96 well plates. Cells were treated as indicated in the figures and viability measured using sulforhodamine B (SRB) or the number of cells counted using Coulter counter.

Data set [5] concerns the target T1, PR (Rattus norvegicus, UniProt Q63449).
T1 construct: expressed in transfected cells
T1 sequence (Q63449 1-923): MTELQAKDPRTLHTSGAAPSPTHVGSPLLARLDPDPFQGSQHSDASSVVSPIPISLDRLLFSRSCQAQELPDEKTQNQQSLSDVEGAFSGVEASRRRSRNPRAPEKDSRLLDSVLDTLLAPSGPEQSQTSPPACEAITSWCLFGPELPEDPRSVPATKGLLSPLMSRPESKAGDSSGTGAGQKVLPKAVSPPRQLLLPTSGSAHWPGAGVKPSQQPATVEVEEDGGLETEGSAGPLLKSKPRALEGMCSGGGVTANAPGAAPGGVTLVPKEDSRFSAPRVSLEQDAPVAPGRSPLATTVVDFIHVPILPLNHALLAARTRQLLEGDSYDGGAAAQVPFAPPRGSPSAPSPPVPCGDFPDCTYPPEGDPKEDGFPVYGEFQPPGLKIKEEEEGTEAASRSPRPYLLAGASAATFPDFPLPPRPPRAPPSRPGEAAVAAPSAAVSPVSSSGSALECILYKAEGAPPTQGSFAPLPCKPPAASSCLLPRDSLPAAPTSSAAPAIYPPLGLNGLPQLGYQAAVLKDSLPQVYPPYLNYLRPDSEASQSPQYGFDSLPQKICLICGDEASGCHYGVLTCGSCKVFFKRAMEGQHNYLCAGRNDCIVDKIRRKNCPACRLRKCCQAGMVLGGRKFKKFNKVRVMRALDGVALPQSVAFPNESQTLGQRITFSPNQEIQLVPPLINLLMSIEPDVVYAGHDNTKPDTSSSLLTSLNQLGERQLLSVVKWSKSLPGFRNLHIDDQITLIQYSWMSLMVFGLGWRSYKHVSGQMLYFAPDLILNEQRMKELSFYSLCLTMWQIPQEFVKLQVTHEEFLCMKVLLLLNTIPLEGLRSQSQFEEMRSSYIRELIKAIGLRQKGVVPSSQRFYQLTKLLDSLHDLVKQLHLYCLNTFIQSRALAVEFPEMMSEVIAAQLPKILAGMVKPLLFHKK
Briefly: Transcriptional activation (luciferase) in HEK-293 cells. The format is cell-based. How it is done:
Rat GR, MR, PR, ER-α and ER-β were individually cloned into a pCR3.1 vector backbone. Sequencing was performed to verify the absence of any mutations. HEK-293 cells were plated at 90,000 cells per well of a 24 well plate in Dulbecco's Minimal Essential Media supplemented with 5% charcoal-stripped FBS. […] Luciferase assays were performed 48 h after transfection. Transcriptional activation values are represented as firefly luciferase normalized to renilla luciferase.

Data set [6] deals with MCF-7 cells stably transfected with AR. Briefly: MCF-7-AR xenograft in ovariectomized, estradiol-supplemented nude mice (Formula VIII). The following applies: 30 mg/kg per day. The data set is classed as in vivo. The method, then: Once tumors reached 100-200 mm^3, the animals were randomized and treated with vehicle or 30 mg/kg per day of Formula VIII. Tumor volumes and body weights were measured thrice weekly. At the end of 5 weeks of treatment, the animals were sacrificed, tumors weighed and stored for RNA and protein isolation and histology. *significance at P<0.05.
In addition, uterus weights were measured in these xenograft studies, and Western blot from MCF-7 tumor xenografts were probed for AR.

On to `C[C@](O)(COc1ccc(C#N)cc1)C(=O)Nc1ccc(C#N)c(C(F)(F)F)c1` [Formula IX, (S)—N-(4-Cyano-3-(trifluoromethyl)phenyl)-3-(4-cyanophenoxy)-2-hydroxy-2-methylpropanamide], for which, in data set [1] (1 μM Formula IX or 100 nM fulvestrant), the “specimens in which ER function was inhibited” value is given as 3 of 8. The “specimens in which AR agonist activity was observed” value in data set [1] (1 μM) was 4 of 8. In addition, the “ER function in specimen 1005” value in data set [1] is “inhibited the ER function”. For the same compound, the tolerability result in data set [2] is “generally well-tolerated”. For the same compound, the “growth trajectory of HCI-9 tumors” value in data set [3] is recorded as “Neither”. Moreover, the “proliferation of MCF-7 cells expressing AR” value in data set [4] was “inhibited proliferation”.
`C[C@](O)(COc1ccc(C#N)cc1)C(=O)Nc1ccc(C#N)c(Cl)c1` [Formula VIII, (S)—N-(3-chloro-4-cyanophenyl)-3-(4-cyanophenoxy)-2-hydroxy-2-methylpropanamide]: the “fold weaker than the endogenous agonist for PR” value in data set [5] (agonist mode) was “greater than 10,000 fold”. For the same compound, the “increase of PR transactivation” value in data set [5] (agonist mode, 1 μM) is 3 fold. For the same compound, the “increase of PR transactivation” value in data set [5] (agonist mode, 10 μM) is given as 8 fold. Besides, in data set [5] (antagonist mode), the “PR antagonist potency in comparison to Formula IX (times more potent)” value is reported as 10 times; the “PR antagonist potency in comparison to R-enantiomer of Formula IX (times more potent)” value is on record as 100 times; the “PR antagonist potency in comparison to RU486 (fold weaker)” value is recorded as “about 1,000 fold”; the “inhibition of PR activity, dose response” value is listed as “potent partial inhibition”. In data set [6], the “uterus weight in estrogen supplemented animals” value is “inhibited uterus weight”. Moreover, in data set [6] (5 weeks), the “inhibition of growth of MCF-7 breast cancer cell xenografts” value is “greater than 50%”.
